In patent US20250064846A1, “TREATMENT AND PREVENTION OF TRIGEMINAL NEURALGIA” (THE JOHNS HOPKINS UNIVERSITY, priority 2022, published 2025):

What was measured:
[1] = tested on: NRF2 target genes; details: corneal fibroblasts and monocytes; cited from earlier work
[2] = tested on: constrictive mouse model of trigeminal neuralgia; test: Cold allodynia (ice-cold acetone) after constriction of the maxillary nerve; format: in vivo; details: i.p. daily, sulforaphane 10 mg/kg; for cold allodynia (analgesic effect): NRF2−/− mice, exemestane 10 mg/kg, JQ-1 40 mg/kg
[3] = tested on: TRPA1; test: Western blot for TRPA1 from maxillary nerves; format: in vivo, mouse; details: normalized to β-actin; vs vehicle
Excerpt: FIGS. 15A-15H are western blots for TRPA1 (FIGS. 15A, 15C, 15E, and 15G) and graphs of relative TRPA1 expression (FIGS. 15B, 15D, 15F and 15H) from maxillary nerves of mice following constriction compared to sham surgery (FIG. 15A-15B) or treatment with sulforaphane (FIG. 15C-15D), exemestane (FIG. 15E-15F), or JQ-1 (FIG. 15G-15H), normalized to β-actin. Lanes and points represent individual mice. Median and range depicted in graphs of relative TRPA1 expression. ns=P>0.05 by two-tailed unpaired Student's t-test.
Western Blotting Western blotting was performed as previously described (See Vasavda, C. et al. Cell Chem Biol 26, 1450-1460.e7 (2019)). Briefly, tissues were homogenized at 4° C. in lysis buffer (pH 7.4 solution of 50 mM Tris-HCl, 150 mM NaCl, 0.1% SDS, 0.5% sodium deoxycholate, and 1% Triton X-100) supplemented with protease inhibitors (Sigma). When dissecting maxillary nerves for immunoblot analysis, nerves were as dissected both as proximally towards the semilunar ganglion and as distal to the skin as possible. Nerves were harvested 11 days after surgery, immediately after the final behavioral test. Lysates were then pulse sonicated and centrifuged at 16,000 g for 10 min at 4° C. Fifteen micrograms of cleared lysate were run on a 4-12% polyacrylamide Bis-Tris gradient gel in running buffer (pH 7.3 solution of 50 mM MES, 50 mM Tris Base, 0.1% SDS, 1 mM EDTA) and then transferred to a PVDF membrane. Membranes were blocked with 5% milk in TBS-T (pH 7.6 solution of 16 mM Tris-HCl, 140 mM NaCl, 0.1% Tween-20) for 1 hr at 25° C. and then incubated with primary antibodies in 3% bovine serum albumin (BSA) (w/v) in TBS-T overnight at 4° C. The following day, membranes were washed with TBS-T, and then incubated with secondary antibodies in 3% BSA (w/v) in TBS-T for 1 hr at 25° C. The following primary antibodies were used: rabbit anti-4-HNE (Abeam ab46545; 1:1.000), rabbit anti-TRPA1 (Novus Biologicals NB110-40763; 1:1,000), rabbit anti-DNP (Millipore Sigma 90451; 1:150), and mouse anti-β-actin (Santa Cruz Biotech sc-47778 HRP; 1:10,000). […]

[4] = tested on: maxillary nerves of mice after nerve ligation; test: Oxidative stress assay in maxillary nerves (4-HNE, protein carbonylation, MDA); format: in vivo, mouse; details: for levels of 4-HNE in maxillary nerves after nerve ligation / protein carbonylation in maxillary nerves after nerve ligation: western blot normalized to β-actin, daily i.p. pre-treatment, vs vehicle
Description: Western Blotting Western blotting was performed as previously described (See Vasavda, C. et al. Cell Chem Biol 26, 1450-1460.e7 (2019)). Briefly, tissues were homogenized at 4° C. in lysis buffer (pH 7.4 solution of 50 mM Tris-HCl, 150 mM NaCl, 0.1% SDS, 0.5% sodium deoxycholate, and 1% Triton X-100) supplemented with protease inhibitors (Sigma). When dissecting maxillary nerves for immunoblot analysis, nerves were as dissected both as proximally towards the semilunar ganglion and as distal to the skin as possible. Nerves were harvested 11 days after surgery, immediately after the final behavioral test. Lysates were then pulse sonicated and centrifuged at 16,000 g for 10 min at 4° C. Fifteen micrograms of cleared lysate were run on a 4-12% polyacrylamide Bis-Tris gradient gel in running buffer (pH 7.3 solution of 50 mM MES, 50 mM Tris Base, 0.1% SDS, 1 mM EDTA) and then transferred to a PVDF membrane. Membranes were blocked with 5% milk in TBS-T (pH 7.6 solution of 16 mM Tris-HCl, 140 mM NaCl, 0.1% Tween-20) for 1 hr at 25° C. and then incubated with primary antibodies in 3% bovine serum albumin (BSA) (w/v) in TBS-T overnight at 4° C. The following day, membranes were washed with TBS-T, and then incubated with secondary antibodies in 3% BSA (w/v) in TBS-T for 1 hr at 25° C. The following primary antibodies were used: rabbit anti-4-HNE (Abeam ab46545; 1:1.000), rabbit anti-TRPA1 (Novus Biologicals NB110-40763; 1:1,000), rabbit anti-DNP (Millipore Sigma 90451; 1:150), and mouse anti-β-actin (Santa Cruz Biotech sc-47778 HRP; 1:10,000). The following secondary antibodies were used: donkey anti-rabbit IgG (GE Healthcare NA934; 1:10,000) and goat anti-rabbit (Millipore Sigma 90452; 1:300).
Oxidative Stress Assay % 4-HNE was quantified by Western blot as described above with a rabbit anti-4-HNE (Abeam ab46545; 1:1,000) primary antibody. Protein carbonylation was assessed with the OxyBlot Protein Oxidation Detection Kit as per the manufacturer's instructions. Protein carbonylation was quantified by western blot as described above with a rabbit anti-DNP (Millipore Sigma 90451; 1:150) primary antibody. MDA was quantified with the OxiSelect TBARS Assay Kit as per the manufacturer's instructions. Concentrations below the limit of detection (LOD) were censored and substituted with a constant value of the […].

[5] = tested on: NRF2 target genes; test: Quantitative PCR of NRF2 target genes from maxillary nerves; format: in vivo, mouse; details: qPCR normalized to Actb, 11 days of treatment, i.p.; for Hmox1 expression in maxillary nerves / Prdx1 expression in maxillary nerves / Txnrd1 expression in maxillary nerves: exemestane 10 or JQ-1 40 mg/kg
Description: FIGS. 17A-17J show differential upregulation of NRF2 target genes after treatment with exemestane and JQ-1. Quantitative PCR analysis of Ngo1, Hmox1 Txnrd1, Prdx1, and Gclc, as indicated, normalized to Actb from maxillary nerves of mice after 11 days of treatment with either exemestane (FIGS. 17A-17E; 10 mg/kg, i.p.) or JQ-1 (FIGS. 17F-17J; 40 mg/kg, i.p.) compared to vehicle is shown. Points represent individual mice. Median and range depicted. *=P<0.05. **=P<0.01, and ns=P>0.05 by two-tailed unpaired Student's t-test.
DNA/RNA Isolation. PCR, and Quantitative-PCR (q-PCR) Total cellular or tissue DNA/RNA was extracted using the DNeasy Blood & Tissue Kit (Qiagen) for DNA or RNeasy Plus Universal Kit (Qiagen) for RNA per the manufacturer's instructions. PCR was performed with the Platinum Taq DNA Polymerase High Fidelity Kit (Invitrogen), whereas q-PCR was performed with the TaqMan RNA-to-Ct I-Step Kit (Applied Biosystems).

[6] = tested on: NRF2 target genes; test: RNA-sequencing of primary human dermal fibroblasts; format: cell-based; details: 48 hours, 0.25 μM JQ-1
Description: RNA-sequencing RNA sequencing was performed as previously described (See Shin, J. Y. et al. Sci Transl Med 11, eaaw0790 (2019)). To assess the transcriptional signature of JQ-1, total RNA was isolated from three independent human fibroblast lines after 48 hours of treatment with DMSO or 0.25 μM JQ-1 using TRizol and RNeasy isolation columns (Qiagen) as per the manufacturer's instructions. DNA was digested with DNase treatment. All samples had RNA integrity numbers 9.60 or higher as measured with an Agilent 2100 Bioanalyzer. mRNA was enriched by poly-A selection, prepped using an Illumina TruSeq mRNA sample preparation kit, and sequenced by Illumina HiSeq 2000.
Differential Gene Expression and Pathway Enrichment Analyses Differential gene expression analysis was performed using BioJupies 126.

[7] = tested on: NRF2 target genes; test: Upregulation of canonical NRF2 target genes (no method given); format: cell-based
[8] = tested on: NRF2; test: NRF2/MAP2 immunostaining in trigeminal ganglia; format: in vivo, mouse; details: immunohistochemistry 24 h after the fourth dose; 10 mg/kg, i.p.

| Compound | upregulation of NQO1 and HMOX1 [1] | cold allodynia (analgesic effect) [2] | TRPA1 expression in maxillary nerves [3] | levels of 4-HNE in maxillary nerves after nerve ligation [4] | protein carbonylation in maxillary nerves after nerve ligation [4] | Hmox1 expression in maxillary nerves [5] | Prdx1 expression in maxillary nerves [5] | Txnrd1 expression in maxillary nerves [5] | expression of canonical NRF2 target genes (NQO1, FTL, PRDX1, TXN, EGR1) [6] | rank of the NRF2 pathway in gene ontology and genetic network analyses [6] | induction of the canonical NRF2 target Nqo1 [7] | Nqo1 expression in maxillary nerves ([5]; exemestane 10 mg/kg) | NRF2 expression in neurons of the trigeminal ganglion [8] | cold allodynia ([2]; TRPA1−/− mice, compared with genetic deletion of TRPA1 alone) | malondialdehyde in maxillary nerves after nerve ligation ([4]; sulforaphane 10 mg/kg, i.p., normalized to protein) |
| --- | --- | --- | --- | --- | --- | --- | --- | --- | --- | --- | --- | --- | --- | --- | --- |
| Cc1sc2c(c1C)C(c1ccc(Cl)cc1)=N[C@@H](CC(=O)OC(C)(C)C)c1nnc(C)n1-2 [JQ-1, (S)-tert-butyl 2-(4-(4-chlorophenyl)-2,3,9-trimethyl-6H-thieno[3,2-f][1,2,4]triazolo[4,3-a][1,4]diazepin-6-yl)acetate] | upregulates NQO1 and HMOX1 | lowers | did not affect TRPA1 expression | reduced | reduced | most potently upregulated | upregulated | did not increase | upregulated a number of canonical NRF2 target genes | second most upregulated pathway | – | – | – | – | – |
| C=C1C[C@@H]2[C@H](CC[C@]3(C)C(=O)CC[C@@H]23)[C@@]2(C)C=CC(=O)C=C12 [exemestane, 6-methylenandrosta-1,4-diene-3,17-dione] | – | lose their analgesic effects | did not affect TRPA1 expression | reduced | reduced | upregulated | upregulated | upregulated | – | – | upregulated the canonical NRF2 target Ngo1 | upregulated | robustly increased NRF2 expression | – | – |
| C[S+]([O-])CCCCN=C=S (stereo not drawn) [sulforaphane, 1-isothiocyanato-4-(methanesulfinyl)butane] | – | lose their analgesic effects | did not affect TRPA1 expression | reduced | reduced | – | – | – | – | – | – | – | robustly increased NRF2 expression | did not lower | reduced |
